Laboratory results as given in patent US6344474B1, “Use of central cannabinoid receptor antagonists for regulating appetence” (Sanofi-Synthelabo, priority 1997, dated 2002).

Experiments:
Male Sprague-Dawley rats = test: Effect of SR 141716 A on the intake of a sucrose solution in rats; format: in vivo, rat; details: for Consumption of sucrose solution in g, 1 hour / Consumption of sucrose solution in g, 2 hours / Consumption of sucrose solution in g, 3 hours / Consumption of sucrose solution in g, 4 hours: 5% sucrose solution; for Consumption of sucrose solution in g, 1 hour: T0+1 hour; for Consumption of sucrose solution in g, 2 hours: T0+2 hours; for Consumption of sucrose solution in g, 3 hours: T0+3 hours; for Consumption of sucrose solution in g, 4 hours: T0+4 hours
Protocol: TEST No. 1: Effect of SR 141716 A on the intake of a sucrose solution in rats
The experiment is performed according to W. C. Lynch et al., Physiol. Behav., 1993, 54, 877-880.
Male Sprague-Dawley rats weighing 190 to 210 g are under a normal light cycle (from 7 am to 7 pm) and receive water and food ad libitum.
For 6 days, between 11 am and 3 pm, the food and the water bottles are withdrawn and the rats are given a 5% sucrose solution to drink.
Rats drinking less than 3 g of sucrose solution are eliminated.
On the seventh day the test is carried out according to the following procedure:
9 am: withdrawal of food,
10 am: oral administration of SR 141716 A,
11 am=T0: introduction of bottles containing a weighed sucrose solution , T0+1 hour, T0+2 hours, T0+3 hours, T0+4 hours: measurement of the sucrose consumption by weighing of the bottles.

Male C 57 BL 6 mice = test: Effect of SR 141716 A on the consumption of an alcohol solution in mice; format: in vivo, mouse; details: 6 hours; for Amount of alcohol consumed in g on D4: 10% alcohol solution
Protocol: TEST No. 2: Effect of SR 141716 A on the consumption of an alcohol solution in mice
Male C 57 BL 6 mice (Iffa-Credo) are isolated on the day of their arrival in an animal housing under a reverse cycle (night from 10 am to 10 pm) with 2 bottles filled with water. After 1 week, one of the bottles of water is replaced with a bottle filled with a 10% alcohol solution for 6 hours of the test. Each day, 30 minutes before the bottle of alcohol is introduced, the mice are treated subcutaneously with SR 141716 A. The amounts of alcohol and water consumed are measured after 6 hours. The test is repeated for 4 days.

Cc1c(C(=O)NN2CCCCC2)nn(-c2ccc(Cl)cc2Cl)c1-c1ccc(Cl)cc1 [SR 141716 A, N-piperidino-5-(4-chlorophenyl)-1-(2,4-dichlorophenyl)-4-methylpyrazole-3-carboxamide]
Consumption of sucrose solution in g, 1 hour (Male Sprague-Dawley rats; 0.3 mg/kg po): 5.18 g
Consumption of sucrose solution in g, 2 hours (Male Sprague-Dawley rats; 0.3 mg/kg po): 9.18 g
Consumption of sucrose solution in g, 3 hours (Male Sprague-Dawley rats; 0.3 mg/kg po): 12.49 g
Consumption of sucrose solution in g, 4 hours (Male Sprague-Dawley rats; 0.3 mg/kg po): 16.10 g
Consumption of sucrose solution in g, 1 hour (Male Sprague-Dawley rats; 1 mg/kg po): 3.27 ± g
Consumption of sucrose solution in g, 2 hours (Male Sprague-Dawley rats; 1 mg/kg po): 3.61 ± g
Consumption of sucrose solution in g, 3 hours (Male Sprague-Dawley rats; 1 mg/kg po): 5.65 ± g
Consumption of sucrose solution in g, 4 hours (Male Sprague-Dawley rats; 1 mg/kg po): 7.43 ± g
Consumption of sucrose solution in g, 1 hour (Male Sprague-Dawley rats; 3 mg/kg po): 2.95 ± g
Consumption of sucrose solution in g, 2 hours (Male Sprague-Dawley rats; 3 mg/kg po): 5.41 ± g
Consumption of sucrose solution in g, 3 hours (Male Sprague-Dawley rats; 3 mg/kg po): 6.96 ± g
Consumption of sucrose solution in g, 4 hours (Male Sprague-Dawley rats; 3 mg/kg po): 8.58 ± g
Dose at or above which consumption of aqueous sugar solution is very considerably reduced (Male Sprague-Dawley rats; oral administration): ≥ 0.3 mg/kg
Amount of alcohol consumed in g on D4 (Male C 57 BL 6 mice; 0.1 mg/kg sc): 1.4 ± 0.2 g
Amount of water consumed (Male C 57 BL 6 mice; 0.1 mg/kg sc): 1.1 ± 0.3 g
Amount of alcohol consumed in g on D4 (Male C 57 BL 6 mice; 0.3 mg/kg sc): 1.3 ± 0.2 g
Amount of water consumed (Male C 57 BL 6 mice; 0.3 mg/kg sc): 1.1 ± 0.3 g
Amount of alcohol consumed in g on D4 (Male C 57 BL 6 mice; 1 mg/kg sc): 1.1 ± 0.2 g
Amount of water consumed (Male C 57 BL 6 mice; 1 mg/kg sc): 1.3 ± 0.1 g
Amount of alcohol consumed in g on D4 (Male C 57 BL 6 mice; 3 mg/kg sc, 3 mg/kg): 1.0 ± 0.2 g
Amount of water consumed (Male C 57 BL 6 mice; 3 mg/kg sc, 3 mg/kg): 1.6 ± 0.3 g
